According to patent publication US8940334B2, “Pharmaceutical composition of an anthracycline” (priority 2007, dated 2015):

Assays:
[1] = Release of drug from DC Bead microspheres in human plasma; type: physicochemical; details: 37° C.
Experimental: The measurements of nemorubicin hydrochloride in the elution medium were carried out with HPLC-MS/UV analysis performed by Finnigan MAT/LCQ Deca XP ion trap MS equipped with ESI ion source, directly connected to a Surveyor HPLC system (Thermo Electron Corporation). HPLC-MS/UV separations were set up on Phenomenex Gemini Phenyl, 3 μm, 50×4.6 mm by Acetate Buffer:Acetonitrile 1:9. UV detection was done at 480 nm and for ESI-MS analysis a heated capillary temperature at 275° C. and spray voltage at 4 KV was applied.
(§1) The release of nemorubicin hydrochloride from DC Bead™ microspheres was evaluated in PBS and in human plasma. At the end of the loading time and at each elution point, loaded nemorubicin hydrochloride-DC Bead™ microspheres were washed by warm water and finally incubated in warm PBS or human plasma at 37° C.
At desiderate elution time supernatant was collected carefully by syringe, avoiding beads aspiration. Then solutions were filtered by 70 μm nylon filcon filter (BD Biosciences) to avoid carry-over contamination, collected in Eppendorf tubes and finally stored at −20° C. for further analysis. […]

[2] = Size and appearance of drug-loaded DC Bead microspheres by image analysis at microscope; type: physicochemical; details: doxorubicin 25 mg drug/ml DC Bead; over loading and elution in PBS
Experimental: Nemorubicin hydrochloride was diluted at the concentration range of from 0.1 to 2.0 mg drug/ml DC Bead™ that represent clinically applicable doses. In the following examples microspheres of 100-300 μm diameters (DC Bead™) were used. Similar results were obtained when microspheres of 300-500 μm diameters (DC Bead™) were used.
The size and spherical shape of microspheres were analyzed after loading with nemorubicin hydrochloride and during the release of the drug up to 16 days. As comparison DC Bead™ microspheres were loaded with doxorubicin at the clinically used dosage of 25 mg drug/ml DC Bead™.
Drug loading: DC Bead™ microspheres were conditioned in water for 10 min. Then the water was discarded and nemorubicin hydrochloride or doxorubicin was added.
Drug release: DC™ microspheres with or without drug were incubated in Phosphate Buffer Saline (PBS) or human plasma from healthy donors up to 16 days. The size and spherical shape of DC Bead™ microspheres were measured at different time points.
Size and appearance of nemorubicin hydrochloride-DC Bead™ microspheres during drug-loading and drug-elution were determined by a Leica DM IRB (Leica) microscope equipped by Evolution MP Color CCD Camera (Media Cybernatics). The analysis of size was performed by Image Pro Plus™ (Media Cybernatics). […] At least four field-images for samples were analyzed to support the statistical analysis.

[3] = test system: human mammary adenocarcinoma cells (MCF-7); assay: Cytotoxicity of elution fractions from DC Bead microspheres on MCF-7 cells (ATPLite); type: cell-based; details: MCF-7, 72 h treatment
Experimental: as §1
At desiderate elution time supernatant was collected carefully by syringe, avoiding beads aspiration. Then solutions were filtered by 70 μm nylon filcon filter (BD Biosciences) to avoid carry-over contamination, collected in Eppendorf tubes and finally stored at −20° C. for further analysis.
Samples were split for: • evaluation of the cytotoxicity of nemorubicin hydrochloride and doxorubicin against tumor cells (as dose able to inhibit cell growth by 50%; IC50). • evaluation of the released amount of nemorubicin hydrochloride and doxorubicin by HPLC-MS/UV analysis (the method used is reported in Example 2). In Vitro Antitumor Activity
The cytotoxic effect of elution fractions was investigated on human mammary adenocarcinoma cells (MCF-7, ECACC source). Cells were grown in E-MEM/Glutamax medium (Invitrogen), 10% FBS (EuroClone), and 1% Non-Essential AminoAcids (Invitrogen) and maintained at 37° C. at 5% CO2. For cytotoxicity test, cells were plated at density of 5,000 cells/well in 96-well plates (Corning) and grown for 24 h before treatment. Cells were treated for 72 h by raise dilutions of elution fractions. At the end of treatment, cells were incubated with TS substrate (ATPLite™). Plates were read for chemiluminescence (480/540 nm) by Perkin Elmer Envision™ plate reader.
IC50 were calculated by LSW Data Analysis™ curve fitting. The IC50 value of nemorubicin hydrochloride and doxorubicin in the medium eluted from DC Bead™ microspheres was compared to that of standard nemorubicin hydrochloride or doxorubicin fresh solutions.

[4] = Elution efficiency from HepaSphere microspheres (HPLC-MS/UV); type: physicochemical; details: up to 168 h
Experimental: Nemorubicin hydrochloride (1 mg drug/ml HepaSphere™, 2.5 mg drug/ml HepaSphere™) and doxorubicin (1 mg drug/ml HepaSphere™, 2.5 mg drug/ml HepaSphere™, 25 mg drug/ml HepaSphere™) were mixed with HepaSphere™ microspheres (50-100 μm). After 20 minutes of incubation the elution efficiency of nemorubicin hydrochloride and doxorubicin was measured up to 168 h.
At desiderate elution time, supernatant was collected carefully by syringe, avoiding beads aspiration. Then solutions were collected in Eppendorf tubes and stored at −20° C. for further analysis.
The released amount of nemorubicin hydrochloride and doxorubicin was evaluated by HPLC-MS/UV analysis (the method used is reported in Example 2).

For COc1cccc2c1C(=O)c1c(O)c3c(c(O)c1C2=O)C[C@@](O)(C(=O)CO)C[C@@H]3O[C@H]1C[C@H](N)[C@H](O)[C@H](C)O1 [Doxorubicin, reference compound], the total drug released [1] was 2.5%, the “size range of loaded microspheres (diameter)” value [2] was 85-125 μm and the IC50 ([3]; MCF7, 72 h, Standard (fresh drug solution)) was 250 nM. It also gave an IC50 ([3]; MCF7, 72 h, fraction eluted at 72 h) of 140 nM, an IC50 ([3]; MCF7, fraction eluted at 24 h) of 250 nM and an IC50 ([3]; MCF7, fraction eluted at 48 h) of 180 nM. The IC50 ([3]; MCF7, fraction eluted at 96 h) was 200 nM, the IC50 ([3]; MCF7, fraction eluted at 120 h) was 450 nM and the IC50 ([3]; MCF7, fraction eluted at 144 h) was 1500 nM. The IC50 ([3]; MCF7, fraction eluted from DC Bead microspheres at 1 h) was 300 nM, the “% total released drug” value ([4]; Dose 1 mg drug/ml HepaSphere (50-100 μm)) was 7% and the “% total released drug” value ([4]; Dose 2.5 mg drug/ml HepaSphere (50-100 μm)) was 4%. For the same compound, the “% total released drug” value ([4]; Dose 25 mg drug/ml HepaSphere (50-100 μm)) was 35%.
